Laboratory results published in ChEMBL document CHEMBL5512603, “Development of de-novo coronavirus 3-chymotrypsin-like protease (3CLpro) inhibitors since COVID-19 outbreak: A strategy to tackle challenges of persistent virus infection” (Eur J Med Chem, 2024).

Legend:
[1] = molecular target: T1, Replicase polyprotein 1ab (Severe acute respiratory syndrome coronavirus 2, UniProt P0DTD1); assay: Inhibition of SARS-CoV-2 recombinant 3CLpro using fluorogenic substrate (Dabcyl-KTSAVLQ]SGFRK M-E
[2] = molecular target: T1, Replicase polyprotein 1ab; assay: Inhibition of SARS-CoV-2 3CLp using fluorescent substrate by FRET assay
SARS-CoV-2 [3] = assay: Antiviral activity against SARS-CoV-2; format: functional, organism-based; details: Severe acute respiratory syndrome coronavirus 2
SARS-CoV-2 [4] = assay: Antiviral activity against SARS-CoV-2 infected in African green monkey Vero E6 cells assessed as inhibition of virus induced cytopathic effect by CellTiter-Glo luminescent cell viability assay; format: functional, organism-based; details: Severe acute respiratory syndrome coronavirus 2, Vero C1008
[5] = molecular target: von Hippel-Lindau disease tumor suppressor-SARS-Cov-2 polyprotein (Severe acute respiratory syndrome coronavirus 2, UniProt P0DTD1+P40337); assay: PROTAC activity at SARS-CoV-2 Main protease/VHL (unknown origin) in SARS-CoV-2 infected african green monkey Vero cell assessed as inhibition of virus-mediated cytopathic effect measured after 72 hrs; format: cell-based
[6] = molecular target: T1, Replicase polyprotein 1ab; assay: Inhibition of 2019-nCoV-2 3CLp using fluorescent substrate by FRET assay
[7] = Cytotoxicity against African green monkey Vero E6 cells; format: toxicity, cell-based, Vero C1008; details: chlorocebus sabaeus
[8] = molecular target: T1, Replicase polyprotein 1ab; assay: Inhibition of recombinant SARS-CoV2 6xHis-tag-Main protease containing modified HRV-3C expressed in Escherichia coli using Mca-AVLQSGFR-K(Dnp)K peptide substrate assessed as fluorescent intensity
[9] = Oral bioavailability in Sprague-Dawley rat at 20 mg/kg; format: ADME, organism-based; details: in vivo
SARS-CoV-2 [10] = assay: Antiviral activity against SARS-CoV-2 infected in HAPEpIC cells at 0.01 MOI assessed as reduction in viral RNA copies by RT-qPCR analysis; format: functional, organism-based; details: Severe acute respiratory syndrome coronavirus 2
[11] = Bioavailability in Sprague-Dawley rat at 20 mg/kg, ip; format: ADME, organism-based; details: in vivo
SARS-CoV-2 [12] = assay: Antiviral activity against SARS-CoV-2 infected in African green monkey Vero E6 cells at 0.1 MOI assessed as inhibition of virus induced cytopathic effect by CCK8 assay; format: functional, organism-based; details: Severe acute respiratory syndrome coronavirus 2, Vero C1008
[13] = molecular target: Protein cereblon/Replicase polyprotein 1ab (Severe acute respiratory syndrome coronavirus 2, UniProt P0DTD1+Q96SW2); assay: PROTAC activity at SARS-CoV-2 Main protease/CRBN (unknown origin) in SARS-CoV-2 infected african green monkey Vero cell assessed as inhibition of virus-mediated cytopathic effect measured after 72 hrs; format: cell-based
[14] = molecular target: T1, Replicase polyprotein 1ab; assay: Inhibition of recombinant SARS-CoV-2 3CLp using fluorogenic substrate by microplate reader
[15] = Oral bioavailability in Sprague-Dawley rat at 10 mg/kg; format: ADME, organism-based; details: in vivo
SARS-CoV-2 [16] = assay: Antiviral activity against SARS-CoV-2 infected in African green monkey Vero E6 cells assessed as inhibition of viral replication incubated by plaque reduction assay; format: functional, organism-based; details: Severe acute respiratory syndrome coronavirus 2, Vero C1008
SARS-CoV-2 [17] = assay: Antiviral activity against SARS-CoV-2 Delta; format: functional; details: Severe acute respiratory syndrome coronavirus 2, Delta

von Hippel-Lindau disease tumor suppressor-SARS-Cov-2 polyprotein, sequence (P40337 whole entry, other chains not shown): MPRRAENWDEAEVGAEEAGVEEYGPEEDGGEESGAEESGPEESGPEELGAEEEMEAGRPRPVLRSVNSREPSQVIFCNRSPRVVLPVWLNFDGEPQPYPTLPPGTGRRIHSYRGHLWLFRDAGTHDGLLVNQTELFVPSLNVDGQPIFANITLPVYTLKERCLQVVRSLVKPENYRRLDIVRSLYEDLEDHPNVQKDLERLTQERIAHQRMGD
Protein cereblon/Replicase polyprotein 1ab, sequence (Q96SW2 whole entry, other chains not shown): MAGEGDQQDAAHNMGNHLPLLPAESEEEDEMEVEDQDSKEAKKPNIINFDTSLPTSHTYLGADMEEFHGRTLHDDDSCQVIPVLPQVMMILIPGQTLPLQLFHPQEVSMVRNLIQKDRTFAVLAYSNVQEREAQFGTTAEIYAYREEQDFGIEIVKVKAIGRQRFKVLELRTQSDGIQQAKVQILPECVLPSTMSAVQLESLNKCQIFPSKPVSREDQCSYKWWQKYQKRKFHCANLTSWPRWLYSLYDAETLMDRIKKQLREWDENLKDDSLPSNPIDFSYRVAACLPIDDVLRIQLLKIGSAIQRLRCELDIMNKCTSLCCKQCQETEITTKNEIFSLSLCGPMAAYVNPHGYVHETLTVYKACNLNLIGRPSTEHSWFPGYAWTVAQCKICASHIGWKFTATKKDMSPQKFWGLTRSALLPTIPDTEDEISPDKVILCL

`CNC(=O)c1cc(C)cc([N+](=O)[O-])c1N1CC[C@]2(CCN(C(=O)c3cncc4cc(O)ccc34)C2)C1` gave an IC50 [1] of 49500 nM.
In the case of `CC(C)CCOc1cc(O)c2c(=O)c(O)c(-c3cc(O)c(O)c(O)c3)oc2c1`, the IC50 [2] is reported as 1920 nM and the EC50 (SARS-CoV-2 [3]) is reported as 31500 nM.
Work on `CCOc1cc(O)c2c(=O)c(O)c(-c3cc(O)c(O)c(O)c3)oc2c1` yielded an IC50 [2] of 740 nM and an EC50 (SARS-CoV-2 [3]) of 51000 nM.
For `CC(C)[C@H]1C(=O)N2C[C@]3(C[C@H]2C#N)C(=O)Nc2ccc(cc23)CCCCCN1C(=O)c1cc2c(F)cc(F)cc2[nH]1`, the IC50 [2] was under 100 nM and the EC50 (SARS-CoV-2 [4]) was under 100 nM.
`Cc1ncsc1-c1ccc(CNC(=O)[C@@H]2C[C@@H](O)CN2C(=O)[C@@H](NC(=O)CCOCCOCCOCCn2nnc(COc3ccc(OC(=O)N[C@@H](CC(C)C)C(=O)N[C@H](C=O)C[C@@H]4CCNC4=O)cc3)c2C)C(C)(C)C)cc1` gave an EC50 [5] of 80 nM.
For `CNC(=O)c1cc(Br)cc([N+](=O)[O-])c1N[C@@H]1CCC[C@H](NC(=O)c2cncc3cccc(O)c23)C1`, the IC50 [1] was 62500 nM.
`CC(C)(C)NC(=O)[C@@H](c1cnccn1)N(C(=O)c1ccco1)c1ccc(-c2ccccc2)cc1` showed an IC50 [6] of 280 nM and a CC50 [7] of over 200000 nM.
Compound `CC(C)[C@H]1C(=O)N2C[C@]3(C[C@H]2C#N)C(=O)Nc2ccc(cc23)CCCCCN1C(=O)C1CN(c2ccccc2)N=N1` (stereo partly drawn) has an IC50 [2] of under 100 nM and an EC50 (SARS-CoV-2 [4]) of under 100 nM.
In the case of `Cc1ncsc1-c1ccc(CNC(=O)[C@@H]2C[C@@H](O)CN2C(=O)[C@@H](NC(=O)CCOCCOCCOCCn2nnc(COC3CCC(OC(=O)N[C@@H](CC(C)C)C(=O)N[C@H](C=O)C[C@@H]4CCNC4=O)CC3)c2C)C(C)(C)C)cc1` (stereo partly drawn), the EC50 [5] is reported as 350 nM.
For `CC(C)[C@H]1C(=O)N2C[C@]3(C[C@H]2C#N)C(=O)Nc2ccc(cc23)CCCCCN1C(=O)c1cc2ccc(C(F)(F)F)cc2[nH]1`, the IC50 [2] was 100 nM and the EC50 (SARS-CoV-2 [4]) was under 100 nM.
`O=c1c2cccc(Br)c2sn1-c1ccccc1` gave an IC50 [8] of over 100000 nM.
For `CC1COP(=O)(Oc2cc(O)c3c(=O)c(O)c(-c4cc(O)c(O)c(O)c4)oc3c2)OC1` (stereo not drawn), the IC50 [2] was 6620 nM and the EC50 (SARS-CoV-2 [3]) was 33400 nM.
`O=C1c2c(O)cc(OP(=O)(Oc3ccccc3)Oc3ccccc3)cc2O[C@H](c2cc(O)c(O)c(O)c2)[C@H]1O` showed an EC50 (SARS-CoV-2 [3]) of 9030 nM.
`O=c1c(O)c(-c2cc(O)c(O)c(O)c2)oc2cc(OCC3CCCC3)cc(O)c12` gave an IC50 [2] of 2450 nM and an EC50 (SARS-CoV-2 [3]) of 7560 nM.
With `O=C[C@@H](C[C@H]1CCNC1=O)NC(=O)[C@H]1[C@@H]2CCC[C@@H]2CN1C(=O)COc1ccc(Cl)cc1Cl` the bioavailability [9] was 14.6%, the EC50 (SARS-CoV-2 [10]) was 1.1 nM and the bioavailability [11] was 76.2%. For the same compound, the EC50 (SARS-CoV-2 [12]) was 540 nM.
For `CC(C)(C)NC(=O)[C@@H](c1cccnc1)N(C(=O)c1ccno1)c1ccc(-c2ccccc2)cc1`, the IC50 [6] was 2470 nM and the CC50 [7] was over 200000 nM.
`Cc1ncsc1-c1ccc(CNC(=O)[C@@H]2C[C@@H](O)CN2C(=O)[C@@H](NC(=O)CCOCCOCCOCCn2nnc(COC(=O)N[C@@H](CC(C)C)C(=O)N[C@H](C=O)C[C@@H]3CCNC3=O)c2C)C(C)(C)C)cc1` showed an EC50 [5] of 950 nM.
Work on `CC(C)C[C@H](NC(=O)Oc1ccc(OCc2cn(CCCCCOCC(=O)Nc3cccc4c3C(=O)N(C3CCC(=O)NC3=O)C4=O)nn2)cc1)C(=O)N[C@H](CO)C[C@@H]1CCNC1=O` (stereo partly drawn) yielded an EC50 [13] of 250 nM.
For `O=C1NCC[C@H]1C[C@H](NC(=O)[C@@H]1[C@H]2CCC[C@H]2CN1C(=O)COc1ccc(Cl)cc1Cl)C(=O)CF`, the IC50 [14] was 18 nM, the bioavailability [15] was 55.1% and the EC50 (SARS-CoV-2 [16]) was 240 nM.
Compound `Cc1ncsc1-c1ccc(CNC(=O)[C@@H]2C[C@@H](O)CN2C(=O)[C@@H](NC(=O)CCC(=O)NCCOCCn2nnc(COc3ccc(OC(=O)N[C@@H](CC(C)C)C(=O)N[C@H](C=O)C[C@@H]4CCNC4=O)cc3)c2C)C(C)(C)C)cc1` has an EC50 [5] of 120 nM.
With `Cc1c(COC2CCC(OC(=O)N[C@@H](CC(C)C)C(=O)N[C@H](C=O)C[C@@H]3CCNC3=O)CC2)nnn1CCOCCNC(=O)CCC(=O)Nc1cccc2c1C(=O)N(C1CCC(=O)NC1=O)C2=O` (stereo partly drawn) the EC50 [13] was 620 nM.
In the case of `Cc1ncsc1-c1ccc(CNC(=O)[C@@H]2C[C@@H](O)CN2C(=O)[C@@H](NC(=O)CCOCCOCCOCCn2nnc(COc3ccc(OC(=O)N[C@@H](CC(C)C)C(=O)N[C@H](CO)C[C@@H]4CCNC4=O)cc3)c2C)C(C)(C)C)cc1`, the EC50 [5] is reported as 750 nM.
`O=C1c2c(O)cc(O)cc2O[C@H](c2cc(O)c(O)c(O)c2)[C@H]1O` [AMPELOPSIN] showed an EC50 (SARS-CoV-2 [3]) of 13600 nM.
`N#C[C@H](C[C@@H]1CCCNC1=O)NC(=O)[C@H](CC1CC1)NC(=O)c1cc2cccc(Cl)c2[nH]1` [POMOTRELVIR] gave an EC90 (SARS-CoV-2 [17]) of 78 nM.
